Results as given in patent publication US20210386835A1, “AN ANTIMICROBIAL COMPOSITION FOR SELECTIVELY INHIBITING GROWTH OF P. ACNES BACTERIA” (priority 2018, published 2021).

B1: Endolysin: recombinant P. acnes phage endolysin cloned from Propionibacterium phage 29399B_C, 284 amino acids, expressed in E. coli (protein)
chain: MRYIPAAHHSAGSNHPVNRVVIHATCPDVGFPSASRKGRAVSTANYFASPSSGGSAHYVCDIGETVQCLSEGTIGWHAPPNPHSLGIEICADGGSHASFRVPGHAYTREQWLDPRVWPAVEKAAILCRRLCDKYNVPKRKLSAADLKAGRRGVCGHVDVTDAWHQSDHDDPGPWFPWDRFMAVVNGHNESGELTVADVKALHDQIKQLSAQLAGSVNKLHHDVGVVQVQNGDLGKRVDALSWVKNPVTGKLWRTKDALWSVWYYVLECRSRIDRLESAVNGLKKLEHHHHHH
modifications: His6 tag; Polypeptide sequence of Endolysin with C-terminal Histidine tag (x6)

Tested on: P. acnes 6919 strain (ATCC, USA)
Assay: Contact kill assay against P. acnes (2 h exposure, colony count)
Type: cell-based, Propionibacterium acnes
Conditions: 10 mM HEPES pH 7.0, 37° C., relative to control
Experimental: P. acnes 6919 strain (ATCC, USA) was grown under anaerobic conditions on RCM agar from Glycerol stocks. A loopful of culture from glycerol stock was streaked on freshly prepared RCM agar plate and incubated at 37° C. anaerobically for 4-5 days. After the incubation, the culture was taken from the plate and re-suspended in saline and then centrifuged at 8000 rpm for 6 minutes at 4° C. The pellet obtained was re-suspended in 10 mM HEPES buffer (pH 7.0). An OD600 culture of 0.5 was made in HEPES buffer. 1:10 dilution of 0.5 OD adjusted culture was used for contact kill assay corresponding to 10^6 cells per ml. […] The contact assay was performed in 10 mM HEPES buffer (pH 7.0). For control, 181 μl of 1:10 diluted […] adjusted culture was mixed with 19 μl of HEPES buffer to make a volume of 200 μl. […] The mixture was mixed and incubated at 37° C. for 2 hours in shaker incubator. Post incubation, the samples were neutralised by serial 1:10 dilution in D/E broth followed by saline dilutions. 100 μl of each dilution was plated on fresh RCM agar plates and allowed to dry. The plates were sealed with parafilm and incubated at 37° C. in anaerobic chamber for 4-5 days. Post incubation, colonies were counted and titer was estimated as log CFU/ml. The relative log reductions of individual and combination treatment were calculated with respect to control and the data is presented in the table below: […]

Row | Molecule | Relative log reduction (Thymol 0.01%) | Relative log reduction (Thymol 0.02%) | Relative log reduction (Endolysin 3 μM)
1 | Cc1ccc(C(C)C)c(O)c1 [Thymol, thymol] | 0.33 | 2.02 | –
2 | B1 | – | – | 1.17
